Reference: patent US8765779B2, “Tricyclic derivatives and their pharmaceutical use and compositions” (Cephalon, Inc., priority 2009, dated 2014)
Structures can show the parent of a compound that is named as a salt.

What was measured:
[1] = molecular target: T1, human 5-HT6 receptor (Homo sapiens, UniProt P50406); assay: Human 5-HT6 Receptor Binding Assay ([3H]LSD displacement, scintillation beads); settings: membranes of CHO-K1 cells with recombinant human 5-HT6, 4 nM [3H]LSD; Table 1, class symbols; read-out: h5-HT6 (Ki)
T1 construct: host or cells: CHO-K1 cells, stably transfected; membranes prepared in house
T1 sequence (P50406 whole entry): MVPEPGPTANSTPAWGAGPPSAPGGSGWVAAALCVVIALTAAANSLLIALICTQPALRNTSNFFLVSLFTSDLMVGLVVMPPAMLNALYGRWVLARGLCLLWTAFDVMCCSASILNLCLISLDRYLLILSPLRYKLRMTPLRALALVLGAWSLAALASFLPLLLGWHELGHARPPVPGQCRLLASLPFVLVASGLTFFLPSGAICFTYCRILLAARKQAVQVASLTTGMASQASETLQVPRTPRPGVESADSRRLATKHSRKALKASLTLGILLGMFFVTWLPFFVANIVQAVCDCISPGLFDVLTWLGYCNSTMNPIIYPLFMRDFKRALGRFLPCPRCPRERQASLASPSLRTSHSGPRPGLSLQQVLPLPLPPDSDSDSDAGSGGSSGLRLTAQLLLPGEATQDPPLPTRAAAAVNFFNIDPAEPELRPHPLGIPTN

SMILES	Ki [1] [nM]	melting point
O=S(=O)(c1ccc2c(c1)OC1CNCCC21)c1cccc2nsnc12 (centres unmarked) [Example 67]	< 500	195 to 196 °C
C[C@@H]1CCCN1CCCOc1cc(F)cc(S(=O)(=O)c2ccc3c(c2)OC2CNCCC32)c1 (single isomer, unassigned) [Example 626]	> 1000	208 to 212 °C
O=S(=O)(c1ccc2c3c(oc2c1)CNCC3)c1cccc(Cl)c1F [Example 81]	< 500	245 to 246 °C
O=S(=O)(c1ccc2c(c1)OC1CNCCC21)c1c(Cl)cccc1Cl (centres unmarked) [Example 64]	< 500	222 to 223 °C
Cc1cncc(Oc2cccc(S(=O)(=O)c3ccc4c(c3)OC3CNCCC43)c2)n1 (centres unmarked) [Example 63]	< 500	128 to 130 °C
CC1(C)CNCc2oc3cc(S(=O)(=O)c4cccc(F)c4)ccc3c21 [Example 86]	< 500	291 to 293 °C
CC1CNCc2oc3cc(S(=O)(=O)c4cccc(F)c4)ccc3c21 (centres unmarked) [Example 102]	< 500	> 300 °C
O=S(=O)(c1cccc(OCc2ccccc2)c1)c1ccc2c(c1)OC1CNCCC21 (centres unmarked) [Example 74]	< 500	238 to 240 °C
O=S(=O)(c1ccc2c3c(oc2c1)C1(CCOC1)NCC3)c1cccc(F)c1F (single isomer, unassigned; enantiomer 1) [Example 473, 7-[(2,3-Difluorophenyl)sulfonyl]-3,4,4′,5-tetrahydro-2H-spiro[1-benzofuro[2,3-c]pyridine-1,3′-furan], enantiomer 1]	< 500	269 to 272 °C
CC12CCNCC1Oc1ccc(S(=O)(=O)c3ccccc3CO)cc12 (centres unmarked) [Example 97]	> 1000	204 to 206 °C
CC(C)Oc1cccc(S(=O)(=O)c2ccc3c4c(oc3c2)CNCC4(C)C)c1 [Example 87]	< 500	251 to 252 °C
CC(=O)NCC1(C)NCCc2c1oc1cc(S(=O)(=O)c3cccc(F)c3)ccc21 (centres unmarked) [Example 492, N-({7-[(3-fluorophenyl)sulfonyl]-1-methyl-1,2,3,4-tetrahydro[1]benzofuro[2,3-c]pyridin-1-yl}methyl)acetamide]	< 500	140 to 155 °C (dec.)
COc1cc2c(cc1S(=O)(=O)c1cccc(Cl)c1Cl)C1CCNCC1O2 (centres unmarked) [Example 88]	< 500	216 to 217 °C
Cn1ccc2cccc(S(=O)(=O)c3ccc4c5c(oc4c3)CNCC5)c21 [Example 84]	< 500	224 to 225 °C
CC1(CN)NCCc2c1oc1cc(S(=O)(=O)c3cccc(F)c3)ccc21 (centres unmarked) [Example 493, 1-{7-[(3-Fluorophenyl)sulfonyl]-1-methyl-1,2,3,4-tetrahydro[1]benzofuro[2,3-c]pyridin-1-yl}methanamine]	< 500	> 250 °C (dec.)
CC12CCNCC1Oc1ccc(S(=O)(=O)c3cccc(F)c3)cc12 (centres unmarked) [Example 90]	< 500	168 to 171 °C
CC12CCNCC1Oc1ccc(S(=O)(=O)c3cccc(Cl)c3)cc12 (centres unmarked) [Example 103]	< 500	218 to 220 °C
CC12CCNCC1Oc1ccc(S(=O)(=O)c3ccc(F)cc3F)cc12 (centres unmarked) [Example 93]	500 to 1000	215 to 216 °C
CC12CCNCC1Oc1ccc(S(=O)(=O)c3cccc(Cl)c3Cl)cc12 (centres unmarked) [Example 105]	< 500	242 to 244 °C
CCNC(=O)Oc1cccc(S(=O)(=O)c2ccc3c(c2)OC2CNCCC32)c1 (centres unmarked) [Example 628, 3-[1,2,3,4,4a,9a-Hexahydro[1]benzofuro[2,3-c]pyridin-7-ylsulfonyl]phenyl ethylcarbamate]	< 500	217 to 219 °C
COc1cc(OCc2ccccc2)cc(S(=O)(=O)c2ccc3c(c2)OC2CNCCC32)c1 (centres unmarked) [Example 76]	< 500	202 to 203 °C
CC1(C(F)F)NCCc2c1oc1cc(S(=O)(=O)c3cccc(F)c3F)ccc21 (single isomer, unassigned; enantiomer 2) [Example 472, 1-(Difluoromethyl)-7-[(2,3-difluorophenyl)sulfonyl]-1-methyl-1,2,3,4-tetrahydro[1]benzofuro[2,3-c]pyridine, enantiomer 2]	< 500	249 to 252 °C
O=S(=O)(c1cccc(-n2cnnn2)c1)c1ccc2c(c1)OC1CNCCC21 (centres unmarked) [Example 75]	> 1000	> 300 °C
Cc1c(Cl)cccc1S(=O)(=O)c1ccc2c3c(oc2c1)CNCC3 [Example 82]	< 500	258 to 259 °C

SMILES	Ki [1] [nM]	melting point
O=S(=O)(c1ccc2c(c1)OC1CNCCC21)c1cccc2nonc12 (centres unmarked) [Example 72]	> 1000	189 to 190 °C
COc1ccc(S(=O)(=O)c2ccc3c(c2)C2(C)CCNCC2O3)cc1F (centres unmarked) [Example 95]	< 500	185 to 187 °C
O=S(=O)(c1ccc2c(c1)OC1CNCCC21)c1nc2ccccc2s1 (centres unmarked) [Example 65]	< 500	195 to 196 °C
Cc1c(Cl)cccc1S(=O)(=O)c1ccc2c(c1)OC1CNCCC21 (centres unmarked) [Example 66]	< 500	188 to 189 °C
CC12CCNCC1Oc1ccc(S(=O)(=O)c3cc(F)cc(F)c3)cc12 (centres unmarked) [Example 94]	< 500	196 to 198 °C
CC12CCNCC1Oc1ccc(S(=O)(=O)c3ccccn3)cc12 (centres unmarked) [Example 91]	> 1000	255 to 257 °C
COc1ccc2sc(S(=O)(=O)c3ccc4c(c3)OC3CNCCC43)nc2c1 (centres unmarked) [Example 71]	> 1000	222 to 223 °C
CC12CCNCC1Oc1ccc(S(=O)(=O)c3ccc(F)cc3)cc12 (centres unmarked) [Example 92]	> 1000	163 to 165 °C
CC1(C)CNC2(CCOCC2)c2oc3cc(S(=O)(=O)c4cccc(F)c4)ccc3c21 (as salt: HCl) [Example 2, 7-[(3-fluorophenyl)sulfonyl]-4,4-dimethyl-2′,3,3′,4,5′,6′-hexahydro-2H-spiro[1-benzofuro[2,3-c]pyridine-1,4′-pyran]]	–	286 to 288 °C
CC1(C)CNC2(CCOC2)c2oc3cc(S(=O)(=O)c4cccc(F)c4)ccc3c21 (racemic) (as salt: HCl) [Example 46, 7-[(3-fluorophenyl)sulfonyl]-4,4-dimethyl-3,4,4′,5′-tetrahydro-2H-spiro[1-benzofuro[2,3-c]pyridine-1,3′-furan]]	–	263 to 268 °C
CC12CCNCC1Oc1cc(S(=O)(=O)c3ccccn3)ccc12 (racemic) (as salt: HCl) [Example 8, 4a-methyl-7-(pyridin-2-ylsulfonyl)-1,2,3,4,4a,9a-hexahydro[1]benzofuro[2,3-c]pyridine]	–	282 to 283 °C
O=S(=O)(c1cccc(OCc2ccccn2)c1)c1ccc2c(c1)OC1CNCCC21 (centres unmarked) (as salt: HCl) [Example 562]	–	179 to 182 °C
CC(C)Oc1cc(OCCO)cc(S(=O)(=O)c2ccc3c(c2)OC2CNCCC32)c1 (centres unmarked) (as salt: HCl) [Example 590]	–	205 to 208 °C
CC(C)Oc1cccc(S(=O)(=O)c2ccc3c4c(oc3c2)C(C)(C)NCC4)c1 (as salt: HCl) [Example 15, 1,1-dimethyl-7-{[3-(propan-2-yloxy)phenyl]sulfonyl}-1,2,3,4-tetrahydro[1]benzofuro[2,3-c]pyridine]	–	243 to 245 °C
N#Cc1ccc(COc2cccc(S(=O)(=O)c3ccc4c(c3)OC3CNCCC43)c2)cc1 (centres unmarked) (as salt: HCl) [Example 551]	–	203 to 204 °C
CC12CCNCC1Oc1cc(S(=O)(=O)c3cccc(F)c3)ccc12 (racemic) (as salt: HCl) [Example 11, 7-[(3-fluorophenyl)sulfonyl]-4a-methyl-1,2,3,4,4a,9a-hexahydro[1]benzofuro[2,3-c]pyridine]	–	288 to 290 °C
CC(=O)NCC1(C)NCCc2c1oc1cc(S(=O)(=O)c3cccc(F)c3)ccc21 (centres unmarked) (as salt: HCl) [Example 632, N-({7-[(3-fluorophenyl)sulfonyl]-1-methyl-1,2,3,4-tetrahydro[1]benzofuro[2,3-c]pyridin-1-yl}methyl)acetamide]	–	210 to 260 °C
CC(C)Oc1cccc(S(=O)(=O)c2ccc3c(c2)OC2CNCCC32C)c1 (single isomer, unassigned) (as salt: HCl) [Example 21, 4a-methyl-7-{[3-(propan-2-yloxy)phenyl]sulfonyl}-1,2,3,4,4a,9a-hexahydro[1]benzofuro[2,3-c]pyridine]	–	183 to 184 °C
CC(C)Oc1cccc(S(=O)(=O)c2ccc3c(c2)OC2CNCCC32C)c1 (racemic) (as salt: HCl) [Example 12, 4a-methyl-7-{[3-(propan-2-yloxy)phenyl]sulfonyl}-1,2,3,4,4a,9a-hexahydro[1]benzofuro[2,3-c]pyridine]	–	206 to 208 °C
Cc1nc(COc2cccc(S(=O)(=O)c3ccc4c(c3)OC3CNCCC43)c2)cs1 (centres unmarked) (as salt: HCl) [Example 569]	–	205 to 208 °C
CC(C)Oc1cc(OC(CO)CCl)cc(S(=O)(=O)c2ccc3c(c2)OC2CNCCC32)c1 (centres unmarked) (as salt: HCl) [Example 589]	–	211 to 213 °C (dec.)
Cc1cc(COc2cccc(S(=O)(=O)c3ccc4c(c3)OC3CNCCC43)c2)no1 (centres unmarked) (as salt: HCl) [Example 565]	–	215 to 217 °C
CC1OCCC12NCCc1c2oc2cc(S(=O)(=O)c3cccc(F)c3)ccc12 (single isomer, unassigned) (as salt: HCl) [Example 60, 7-[(3-Fluorophenyl)sulfonyl]-2′-methyl-3,4,4′,5′-tetrahydro-2H-spiro[1-benzofuro[2,3-c]pyridine-1,3′-furan]]	–	298 to 301 °C (dec.)
CC1(C)NCCc2c1oc1ccc(S(=O)(=O)c3cccc(F)c3)cc21 (as salt: HCl) [Example 42, 6-[(3-fluorophenyl)sulfonyl]-1,1-dimethyl-1,2,3,4-tetrahydro[1]benzofuro[2,3-c]pyridine]	–	> 200 °C
